This is an account of results in patent EP4635954A1, “INDUCER FOR INDUCING MESENCHYMAL-EPITHELIAL TRANSITION AND REPROGRAMMING” (Iregene Therapeutics Co., Ltd, priority 2022, dated 2024).

In the test the target is miR-145. As to the kind of experiment: Isothermal titration calorimetry (ITC), Nano-ITC. To be noted: Multiple Sites model, 50 µM miR-145 in cell, 500 µM ligand in syringe. It is filed as binding. An excerpt:
Isothermal titration calorimetry (ITC) operates based on the principle of power compensation and allows accurate determination of the enthalpy change associated with molecular interactions across a broad concentration range using a single titration experiment. It measures the heat change upon binding and provides a complete thermodynamic profile of nucleic acid-ligand interactions. Quantitative thermodynamic characterization of the complex is essential for understanding the molecular basis of the interaction between the microRNA miR-145 and the small molecule compound. In this invention, the Nano-ITC calorimeter from Waters Corporation was used to validate in vitro the interaction between nucleic acid and small molecule compounds. The experimental procedure involved placing 300 µL of singlestranded miR-145 solution at a concentration of 50 µM into a temperature-controlled sample cell, which was thermally coupled via a thermocouple circuit to a reference cell containing an equal volume of deionized water. As an example, the small molecule A-3-6 was prepared at a concentration of 500 µM and a volume of 50 µL, and loaded into the injection syringe as the ligand. The heat change in the sample cell was measured and balanced against the reference cell, appearing as either endothermic or exothermic peaks. […]

On to `O=C(Cc1ccccc1)Nc1cc2cc[nH]c2cn1` [Compound A-3-6, 2-Phenyl-N-(1H-pyrrolo[2,3-c]pyridin-5-yl)acetamide], for which the Kd amounted to 7.54 nM (site with nSite 1.8) and 70.2 nM (site with nSite 3).

By Kd is commonly meant the free concentration of one partner at which half of the binding sites on the other are occupied at equilibrium, for simple one-to-one binding. Low readings indicate higher affinity, high ones lower affinity.
